From patent US20170360671A1, “METHOD FOR PREPARING 3,6-ANHYDRO-L-GALACTOSE, AND USE THEREOF” (Korea University Research and Business Foundation, priority 2012, published 2017)

System: mushroom-derived tyrosinase
Test: In vitro (cell-free) tyrosinase activity assay with L-tyrosine as substrate
Format: biochemical
Conditions: 200 μM
Method: The in vitro tyrosinase analyses were performed using a slight modification of the reported method (Ishihara Y et al., The journal of antibiotics (Tokyo) 1991; 44:25-32; An S M, Koh J S, Boo Y C, Phytotherapy Research 2010; 24:1175-1180). In brief, 250 μl of a 0.1M potassium phosphate buffer (pH 6.8) was put into a 24-well plate, and 25 μl of a mushroom-derived tyrosinase (2,000 units/mL), 25 μl of a sample, and 225 μl of distilled water were put into each well. The plate was incubated at 25° C. for 10 minutes, and 25 μl of 1 mM L-tyrosine used as a substrate was added to the wells. Then, the plate was incubated at 25° C. for 10 minutes, and the optical density of each well measured at 475 nm using a microplate reader (Sunrise-Basic Tecan, Austria). Each of the measured values was represented by a variation (%) with respect to the control. L-tyrosine was used as the substrate, and arbutin was used as the positive control. The results were represented by the relative tyrosinase activities to the non-treated control. Next, effects of L-AHG on the tyrosinase activities were examined using a cell-free assay system. Many reports disclosed that the mushroom-derived tyrosinase was primarily used as a model since it was able to be used in the form of a tablet. […] The results were represented by the relative tyrosinase activities to the non-treated control. […]

## OC[C@H]1O[C@@H](Oc2ccc(O)cc2)[C@H](O)[C@@H](O)[C@@H]1O [arbutin]
  tyrosinase activities relative to the non-treated control: 40%
